Measured values from patent US20250177412A1, “SMALL-MOLECULE INHIBITORS TARGETING THE BOB1/OCT1 INTERFACE” (NANTES UNIVERSITE, priority 2022, published 2025).

Tests used:
[1] = test system: BOB1/OCT1-mediated transcription; test: Luciferase reporter assay (transient transfection, 6xPORE-luc); type: cell-based, human
Procedure: FIGS. 1A-C are a combination of graphs showing that compound 005 inhibits BOB1/OCT1-mediated transcription in vitro. HEC293Ea1 cells, known to express endogenous OCT1, were co-transfected with […] reporter, pEV-OBF1 (BOB1) effector, and pCMV-β-gal calibrator plasmids. Luciferase and β-galactosidase activities were measured 48 hours after transfection. The 100% luciferase activity was set as activity in presence of vehicle (10 μM DMSO). […] All experiments are performed at least in triplicates. Bars indicate the mean±SEM. * P<0.05, ** P<0.01, *** P<0.001, **** P<0.0001.
The HEK293E1a cells were seeded at density 1.2×10^4 per well on 48-well plate in DMEM medium containing 10% fetal calf serum. After 24 hours cells were transfected with plasmid mix (300 ng/well) containing specified amounts of the p6×PORE-luc reporter, pEV-OBF1 and pCG-Oct1 effector, pBluescript II KS+ carrier, and pCMV-βgal (for standardization) as previously described. The transfections were carried out in three biological replicates, using Polyethylenimine (PEI 25K, Polysciences Inc.) at the ratio 2:1 to DNA. After 48 hours, cells were washed with PBS, lysed, and measured for luciferase activity, using the Bright-Glo luciferase assay system (Promega), and for β-galactosidase activity in a standard assay.
BOB1 has been described as a coactivator acting in cooperation with the POU-domain proteins OCT1 and OCT2 bound to distinct DNA-motifs either in monomeric or dimeric configurations. […] As an initial functional assay, we examined the ability of the compounds according to the present invention to affect BOB1-OCT1-PORE-mediated transcriptional activation in transient transfection luciferase assay. To this end, we made use of previously generated 6×PORE-luc and reporter plasmid, in which hexamers of the PORE were cloned upstream of the thymidine kinase (tk) minimal promoter and luciferase gene. […] Furthermore, the addition of a plasmid expressing exogenous OCT1 exerted an inhibitory effect on both basal and BOB1-mediated transcription (data not shown). This observation is likely due to the fact that HEK293 cells, like all other mammalian cell types, express OCT1, and further addition of exogenous OCT1 in these cells shifts the BOB1/OCT1 equilibrium out of optimal range, resulting in squelching effect, and in our experimental setup, in about 3-fold stimulation, as compared to that by endogenous OCT1 alone (FIG. 1A). […] Compound 005 was selected for further detailed investigation.

[2] = test system: B cells; test: B cell apoptosis by intracellular active caspase-3 staining; type: cell-based; conditions: for percentage of caspase-3 positive B cells: day 7, mean±SD
Procedure: FIG. 5E-F show corresponding summarized data (n=8) for the frequency of caspase-3^+CD38^+/− non-plasmablasts (FIG. 5E) and caspase-3^+CD20^lowCD38^++ plasmablasts (FIG. 5F) at Day 7. […] Error bars are mean±SD. P values were determined with one-way ANOVA with Geisser-Greenhouse's multiple comparisons test.
(§1) B cells were stimulated to differentiate into plasmablasts using a two-phase cell culture protocol as previously described. Briefly, B cells were seeded at 4×10^5 cells/mL in 24-well plates and activated during 4 days with 50 ng/mL recombinant human soluble CD40L (R&D Systems), 2.5 μg/mL CpG oligodeoxynucleotide (ODN) 2006 (Amidogen or Cayla Invivogen), 2 μg/mL F(ab′)2 fragment goat anti-human IgA+IgG+IgM (H+L) polyclonal Abs (anti-BCR) (Jackson ImmunoResearch Laboratories), and 50 U/mL human IL-2 (SARL Pharmaxie or Novartis). Day 4-activated B cells were washed and cultured at the same concentration for three additional days in a fresh medium containing 50 U/mL human IL-2, 10 ng/mL human IL-4 (R&D Systems), and 10 ng/mL human IL-10 (R&D Systems) to induce B cell differentiation into plasmablasts. At days 0, 4 and 7, B cells were stained with viability marker LIVE/DEAD Fixable Aqua Dead Cell Stain (Thermofisher) to identify dead cells, followed by extracellular staining with anti-human mAbs: anti-CD20 FITC, anti-IgD BUV395, anti-CD27 BUV737, anti-CD38 BV605 (all from BD Biosciences) and analyzed by flow cytometry (FACSCelesta™, BD Biosciences). In some experiments, B cell apoptosis was evaluated by intracellular active caspase-3 staining (Caspase-3-PE, BD Biosciences).

[3] = biological target: T1, ternary BOB1/POU1/PORE complex (Homo sapiens, UniProt P14859); test: Electrophoretic mobility shift assay (EMSA); type: binding; conditions: 100 μM
T1 construct: made in house; host or cells: E. coli BL21
T1 sequence (P14859 280-438): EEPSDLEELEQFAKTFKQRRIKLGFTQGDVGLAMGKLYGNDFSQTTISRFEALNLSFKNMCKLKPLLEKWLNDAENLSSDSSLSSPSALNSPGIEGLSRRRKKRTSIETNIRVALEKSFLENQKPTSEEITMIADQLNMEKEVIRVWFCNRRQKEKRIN

[4] = test system: memory B cells; test: Immunoglobulin isotype production (LEGENDplex 8-plex); type: cell-based, human; conditions: day 7
Procedure: as §1, with “Day 4-activated B cells were washed and cultured at the same concentration for three additional days in a fresh medium containing 50 U/mL human IL-2, 10 ng/mL human IL-4 (R&D Systems), and 10 ng/mL human IL-10 (R&D Systems) to induce B cell differentiation into plasmablasts.” left out
Immunoglobulin isotypes were quantified using the Human Immunoglobulin Isotyping LEGENDplex 8-plex kit (BioLegend) according to the manufacturer's instructions. Data were collected on the BD FACSCanto™ II flow cytometer and analyzed using LEGENDplex Data Analysis Software.

[5] = test system: NIH3T3 cells; test: MTT assay; type: cell-based; conditions: data not shown
[6] = test system: memory B cells; test: High-throughput multiplex qPCR of B-cell-related genes; type: cell-based, human; conditions: 10 μM
Procedure: FIGS. 4A-AA are a combination of heatmap plot and graphs showing expression of B-cell-related genes at day 4 and day 7 of the human B cell differentiation in vitro model in the presence of 0 μM and 10 μM of the compound 005 (n=6). Experimental conditions are as described in the FIG. 3. […] FIG. 4B-AA show expression of the selected genes at day 4 related to proliferation (FIG. 4B-D), plasma-cell differentiation (FIG. 4E-I), immunoglobulin isotype switching (FIG. 4J-M), B-cell identity (FIG. 4N-S), and B-cell activation (FIG. 4T-AA).

For `Cc1ccc(NC(=O)C2CN(c3nc(NCCCc4ccc(F)cc4)nc(NCCC(=O)O)n3)c3ccccc3O2)cc1Cl` (stereo not shown) [compound 005, 3-((4-(2-((3-chloro-4-methylphenyl)carbamoyl)-2,3-dihydro-4H-benzo[b][1,4]oxazin-4-yl)-6-((3-(4-fluorophenyl)propyl)amino)-1,3,5-triazin-2-yl)amino)propanoic acid], the “BOB1/OCT1-driven transcription (relative luciferase activity)” value ([1]; 10 μM in the culture medium) was “significantly attenuated”, the “suppression of transcriptional activation” value ([1]; concentration range from 0.5 to 40 μM) was “dose-dependent manner” and the “percentage of caspase-3 positive B cells” value ([2]; 5 μM) was 33.9±15.5%. The “percentage of caspase-3 positive B cells” value ([2]; 10 μM) was 25.6±7.5%, the “percentage of caspase-3 positive B cells” value ([2]; 15 μM) was 30.8±7.9% and the “frequencies of caspase-3 positive cells” value ([2]; activation phase (days 0-4), even at high concentrations) was “did not affect”. For the same compound, the “susceptibility to apoptosis of CD20loCD38hi plasmablast and CD20+CD38+/- non-plasmablast populations” value ([2]; day 7) was “reduced susceptibility to apoptosis”, the “effect on ternary BOB1/POU1/PORE complex” value [3] was “has not affected” and the “IgG1, IgG2, IgG3 and IgG4 production” value ([4]; 10 μM) was “significant decrease”. The “titers of all immunoglobulin subclasses” value ([4]; 15 and 20 μM) was “strongly suppressed”, the concentration showing toxicity [5] was at least 80 µM and the “expression of genes related to the B cell identity and activation” value [6] was “upregulated”. For the same compound, the “expression of plasma cell related genes” value [6] was “suppressed”.
